No end group written: not given here.
Legend:
DSS-treated mice = experiment: Length of colon from DSS-treated mice mimicking acute ulcerative colitis; assay type: in vivo; conditions: 5% DSS in drinking water; daily ip 20 μg; one week
Method: FIG. 8: Effect of daily ip inoculation of OxA, Suvorexant and Almorexant on the length of colon from DSS- (dextran sulfate sodium) treated mice mimicking the acute ulcerative colitis disease. A. Mice were treated with 5% (w/v) DSS in drinking water and daily injected with 20 μg of OxA (OXA IP), 20 μg of Suvorexant (Suvo) or 20 μg of Almorexant (Almo). Control (wt) or treated DSS mice (DSS) were daily injected with 100 μl PBS. After one week of treatment, mice were sacrificed and the length of colon which represented a good marker of inflammation state, was measured. […] B. quantification of colon length from 5 different DSS-treated mice injected with OxA (DSS+OXA IP), Almorexant (DSS+Almo), Suvorexant (DSS+Suvo) or not injected (WT and DSS). NS, no significant; *, p<0.05; ** p<0.001
The inventors also investigated the effect of daily intraperitoneal inoculation of OxA, Suvorexant and Almorexant on the length of colon from DSS- (dextran sulfate sodium) treated mice mimicking the acute ulcerative colitis disease.

DSS-induced colitis mice [1] = experiment: DSS-induced colitis mice, Disease Activity Index; assay type: in vivo, Balb/c mice; conditions: 5% DSS orally 7 days; daily ip 0.22 μmoles/kg
From the text: FIG. 2: OXA ameliorates the DAI (weight and colitis score) of DSS-induced colitis mice. Mice were orally treated with 5% DSS for 7 days in the presence or in the absence of daily intraperitoneal injection of OxA (0.22 μmoles/kg). Left, determination of gain or loss of weight in the absence of DSS treatment (Control, ▴), in the presence of DSS treatment (DSS, ▪) and in the presence of DSS associated to OxA treatment (DSS+OxA, ●). Right, evaluation of Disease Activity Index (DAI) scored by measuring weight, length of colon, diarrhea and blood presence in the stool in DSS untreated control mice (Control, ▴), in DSS treated mice (DSS, ▪) and in DSS treated mice associated to OxA treatment (DSS+OxA, ●).
Based on these observations, we have investigated the effect of Orexin A (OxA) on acute inflammation in mice treated with Dextran Sulfate Sodium (DSS). OxA was preferentially chosen in these experiments since the presence of two disulphide bridges confers it more stability. DSS induces acute colitis characterized by weight loss, bloody diarrhea, intestinal ulcerations and infiltrations with granulocytes.
(§1) Balb/c mice were orally treated by 5% (w/v) of Dextran Sulfate Sodium (DSS) for 7 days. […] Weight and colitis symptoms (diarrhea, blood in the stool . . . ) for each mouse was daily measured. […]

[2] = test system: colon adenocarcinoma HT-29 cells; experiment: Cell growth determination, HT-29 cells; assay type: cell-based; conditions: 48 hr, 0.1 μM OxA or increasing concentrations of SB408124
Method: (§2) FIG. 6: Determination of the inhibition of cellular growth of HEK-OX1R cells and colon adenocarcinoma cells (HT-29) induced by 0.1 μM of OxA or various concentrations of SB408124 antagonist. HEK-OX1R cells (black column) and HT-29 cells (white column) were incubated with 0.1 μM of OxA and indicated increasing concentration of SB408124, and cells were counted after 48 hr incubation. Results are expressed as the percentage of total viable cells.
(§3) HEK-OX1R cells or colon adenocarcinoma HT-29 cells were seeded, grown and maintained at 37° C. in a humidified 5% CO2/air incubator. After 24 hr culture, cells were treated with or without Orexin-A peptide or SB408124 antagonist, previously dissolved in DMSO, to be tested at the concentration indicated in the figure legends. After 48 hr of treatment, adherent cells were harvested by TriplE (Life Technologies, Saint Aubin, France) and manually counted. Apoptosis was determined using the Guava PCA system and the Guava nexin kit.

DSS-induced colitis mice [3] = experiment: Cytokine assays in colon extracts of DSS-induced colitis mice; assay type: in vivo; conditions: daily ip 0.22 μmoles/kg, 7 days
Method: FIG. 3: OXA effects on cytokines secretion in DSS-induced colitis mice. Right, Colons of DSS untreated mice (white), DSS treated mice (gray) and DSS treated mice associated to OxA treatment (black) were resected after animal sacrifice. Then, protein extraction was performed by tissue disruption. Cytokines were determined using Cytokine CBA kits (see Material and Methods). Left, after colon resection, RNA were extracted from colonic tissue and qPCR was performed using specific oligonucleotides for IL8 homolog and IL1B.
These observations are confirmed by histologic aspect of colon epithelium (histologic scoring by a GI pathologist). Thus, OxA has probably an anti-inflammatory effect on DSS-induced colitis. To confirm this hypothesis, we have investigated the anti-inflammatory effect of OxA treatment on cytokines secretion in colon extracts from DSS-treated mice. […] In contrast, OxA has no effect on INFγ, IL10, and IL12 cytokine secretion in colon extracts (FIG. 3).
Balb/c mice were orally treated by 5% (w/v) of Dextran Sulfate Sodium (DSS) for 7 days. Orexin treatment was carried out in DSS treated mice by daily intraperitoneal injection of OxA (0.22 μmoles/kg) for 7 days. Weight and colitis symptoms (diarrhea, blood in the stool . . . ) for each mouse was daily measured. After 7 days of treatment, animals were sacrificed and colons were resected to further analyses (size, histological aspect, cytokine assays). […] mice (IL10^−/− and Nox1^−/−) which develop a spontaneous colitis at 6/7 weeks of age were treated or not with OxA (0.22 μmoles/kg, 2 intraperitoneal injection/week for 21 days). After animal sacrifice colons were resected and histologic analysis was performed.
Mice were sacrificed and colons were resected. Proteins were extracted from colon by tissue disruption in PBS using Tissue Lyser (Qiagen, Courtaboeuf, France). Various cytokines (see FIG. 3) were determined using Cytokine CBA kits (BD Sciences, Le Pont de Claix, France).

EXCY2 mice = experiment: Spontaneous UC-like colitis in EXCY2 mice (IL10-/-; Nox1-/-), colon histology; assay type: in vivo; conditions: 10 week-old EXCY2 mice, 0.22 μmoles/kg, 2 IP/week during 3 weeks
Method: FIG. 4: Histological aspect of colon mucosa in OxA treated EXCY2 mice (right) and non-treated EXCY2 mice (left). EXCY2 mice genetically invalidated for IL10 and Nox1 genes (IL10^−/− and Nox1^−/−) which develop spontaneous UC-like disease, were treated with OxA (0.22 μmoles/kg, 2 intraperitoneal injection/week for 21 days) (right) or untreated (left). After animal sacrifice colons were resected and histologic analysis was performed.
DSS mouse model has been extensively used to decipher the mucosal inflammation in IBD, UC pathogenesis, and preclinical studies. However, mice show differential susceptibilities and responsiveness to DSS-induced colitis depending on their genetic background, gender. DSS model is a faithful model of inflammation but departs from Ulcerative Colitis in part for lack of the inflammation gradient from the rectum to the proximal colon usually observed in UC, any deregulation of ER stress in goblet cells known to be an early etiological factor of UC, and no digestive or extra-digestive complications of UC such as cholangitis and colorectal cancer, respectively. The use of genetically modified mice model represents a good alternative to chemically-induced colitis mice model. […]
as §1

[4] = test system: colon adenocarcinoma HT-29 cells; experiment: Apoptosis assay (annexin V-PE binding), HT-29 cells; assay type: cell-based; conditions: 48 h, 1 μM orexin-A or various concentrations of SB408124
Method: FIG. 7: Effect of orexin-A and SB408124 antagonist on apoptosis in OX1R expressing colon adenocarcinoma cells, HT-29. HT-29 cells were challenged with 1 μM orexin-A or various concentration of SB408124 for 48 h. Apoptosis was measured by determination of annexin V-PE binding, and results are expressed as the percentage of apoptotic cells. Results are means±SE of three experiments. ***P<0.001.
as §3

OX1R = target: T1, OX1R (Homo sapiens, UniProt O43613); experiment: Ca2+ mobilization assay in HEK-OX1R cells (FluoForte); assay type: cell-based
T1 construct: HEK cells expressing recombinant native OX1R (HEK-OX1R); expressed in transfected cells; host or cells: HEK cells (HEK-OX1R)
T1 sequence (O43613 1-425): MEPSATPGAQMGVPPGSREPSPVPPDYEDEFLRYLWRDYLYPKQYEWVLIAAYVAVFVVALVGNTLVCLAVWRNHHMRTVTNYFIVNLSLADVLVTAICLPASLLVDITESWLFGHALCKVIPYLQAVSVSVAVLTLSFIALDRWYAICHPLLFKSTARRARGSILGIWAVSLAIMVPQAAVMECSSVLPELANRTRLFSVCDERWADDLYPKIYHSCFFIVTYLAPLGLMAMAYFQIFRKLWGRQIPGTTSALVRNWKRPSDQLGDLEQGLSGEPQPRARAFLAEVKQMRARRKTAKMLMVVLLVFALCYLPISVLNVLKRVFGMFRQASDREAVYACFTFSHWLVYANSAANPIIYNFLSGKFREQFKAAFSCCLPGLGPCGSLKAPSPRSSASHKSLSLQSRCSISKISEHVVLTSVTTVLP
Method: FIG. 5: Effect of orexin-A and SB408124 antagonist on Ca2+ mobilization in HEK-OX1R cells. Top, HEK-OX1R cells were incubated with fluorescence probe (FluoForte) for 45 min. at 37° C. according to FluoForte calcium assay kit (Enzo Life Sciences). 1 μM of OxA was added to cells and fluorescence emission was measured on TECAN Infinite 200 fluorospectrophotometer. Bottom, HEK-OX1R cells were incubated with fluorescence probe (FluoForte) for 45 min. at 37° C. and then incubated with 1 μM of SB408124 for 1 h at 37° C. After pre-incubation, 1 μM of OxA was added to cells and fluorescence emission was measured.
HEK cells expressing recombinant native OX1R (HEK-OX1R) cells were seeded in 96-wells plate, grown and maintained at 37° C. in a humidified 5% CO2/air incubator. 80,000 cells/well were incubated with FluoForte probe according to FluoForte calcium assay kit (ENZO life Sciences, Farmingdale, N.Y., USA) for 45 min. at 37° C. and then incubated with or without 1 μM of […] antagonist for 1 h at 37° C. After pre-incubation, 1 μM of OxA was added and fluorescence was determined using TECAN Infinite 200 fluorospectrophotometer.

HEK-OX1R cells = experiment: Cell growth determination, HEK-OX1R cells; assay type: cell-based; conditions: 48 hr, 0.1 μM OxA or increasing concentrations of SB408124
Method: as §2, §3

Molecule: Cc1ccc(-n2nccn2)c(C(=O)N2CCN(c3nc4cc(Cl)ccc4o3)CC[C@H]2C)c1 [Suvorexant]
- Protection from DSS induced acute ulcerative colitis (colon length) (DSS-treated mice): protect mice from DSS induced acute ulcerative colitis disease

Molecule: OxA: Orexin A peptide with two disulphide bridges, agonist of OX1R (QPLPDCCRQKTCSCRLYELLHGAGNHAAGILTL; disulfide (positions not given here); ends not checked; also: two disulphide bridges, places not given here; UniProt O43612 34-66, looked up)
- Disease Activity Index (DAI) scored by weight, length of colon, diarrhea and blood in the stool (DSS-induced colitis mice [1]): ameliorates
- Inhibition of cellular growth [2]: induced a strong inhibition of cellular growth
- IL6 secretion in colon extracts (DSS-induced colitis mice [3]): reduces the secretion
- IL10 secretion in colon extracts (DSS-induced colitis mice [3]): has no effect
- IL12 secretion in colon extracts (DSS-induced colitis mice [3]): has no effect
- INFγ secretion in colon extracts (DSS-induced colitis mice [3]): has no effect
- TNFα secretion in colon extracts (DSS-induced colitis mice [3]): reduces the secretion
- IL1B in colon extracts (DSS-induced colitis mice [3]; qPCR per FIG. 3): reduces the secretion
- IL8 homolog in colon extracts (DSS-induced colitis mice [3]; qPCR per FIG. 3): reduces the secretion
- Effect on severe spontaneous colitis (EXCY2 mice): alleviated severe colitis
- Histological aspect of colonic mucosa (crypts aspect, crypt size, goblet cells, immune cells infiltration) (EXCY2 mice; vs vehicle treated): exhibited a normal colonic mucosa
- Apoptosis (annexin V-PE binding) [4]: induced an apoptotic effect
- Ca2+ mobilization (agonist effect) (OX1R; 1 μM): induced a large and transient Ca^2+ mobilization
- Protection from DSS induced acute ulcerative colitis (colon length) (DSS-treated mice): protect mice from DSS induced acute ulcerative colitis disease
- Inhibition of cellular growth (HEK-OX1R cells): induced a strong inhibition of cellular growth

Molecule: CNC(=O)[C@@H](c1ccccc1)N1CCc2cc(OC)c(OC)cc2[C@@H]1CCc1ccc(C(F)(F)F)cc1 [Almorexant]
- Protection from DSS induced acute ulcerative colitis (colon length) (DSS-treated mice): protect mice from DSS induced acute ulcerative colitis disease

Molecule: Cc1cc(NC(=O)Nc2ccc(N(C)C)cc2)c2cc(F)cc(F)c2n1 [SB408124]
- Inhibition of cellular growth [2]: induced also a strong inhibition in a dose-dependent manner of cellular growth
- Apoptosis (annexin V-PE binding) [4]: able to induce in a dose-dependent manner cell apoptosis
- Effect on OxA-induced Ca2+ mobilization (antagonist effect) (OX1R; 1 μM preincubation 1 h, then 1 μM OxA): totally abolished the induced-Ca^2+ mobilization
- Inhibition of cellular growth (HEK-OX1R cells): induced also a strong inhibition in a dose-dependent manner of cellular growth
